According to publication PMC10412585 (Nature Communications, 2023):

Molecular target: T1, CD94/NKG2A (Homo sapiens, UniProt P26715+Q13241)
T1 construct: The C-terminus of human NKG2A or NKG2C ectodomain was connected via a GGSGGS linker to human CD94 ectodomain; AviTag biotinylation tag (C); poly-histidine tag (C); made in house; host or cells: baculovirus, High Five (Hi5) insect cells
Assay: Steady-state SPR of peptide-HLA-E single chain trimers with CD94/NKG2A
Type: binding
Conditions: SPR with CD94/NKG2A and CD94/NKG2C, Fig. 5B; taken as lower stability of the peptide-HLA-E complex
Procedure: Specifically, we measured CD94/NKG2A and CD94/NKG2C affinity for HLA-E complexed with three sets of peptides. […] Third, we included […] peptide as a positive control.
Steady-state surface plasmon resonance experiments were performed with a Biacore T200 instrument. CD94/NKG2x in HBS-EP+ buffer was injected as analyte in a concentration range of 0.1 μM to 102.4 μM and flow rate of 10 μL/min at 25 °C. Data was fit with Prism 9.4 (GraphPad Software Inc; San Diego CA) to a “one site, specific binding” model. Sensorgrams are included in Supplemental Fig. 13.
For investigating WN peptides, biotinylated pMHC was immobilized at approximately 400 Response Units (RU) on a Series S SA sensor chip (Cytiva). […] CD94/NKG2A was injected followed by CD94/NKG2C.
For investigating human-derived peptides, Series S CM5 chips (Cytiva) were coupled to neutravidin and utilized. Biotinylated pMHC was immobilized at approximately 400 RU. On one chip, […] CD94/NKG2A was injected followed by CD94/NKG2C. On a second chip, PISD55-63 HLA-E SCT, AKAP6_388-396 HLA-E SCT, GTF3C5_293-301 HLA-E SCT, and reference HLA-DR401 were immobilized. CD94/NKG2C was injected followed by CD94/NKG2A. Rmax, fit values were calculated by Biacore software. Rmax, theoretical values were calculated using the analyte/ligand mass ratio (0.66) multiplied by the amount of ligand coupled to the chip.

T1 sequence (Q13241 whole entry, looked up, the tested form may be a part): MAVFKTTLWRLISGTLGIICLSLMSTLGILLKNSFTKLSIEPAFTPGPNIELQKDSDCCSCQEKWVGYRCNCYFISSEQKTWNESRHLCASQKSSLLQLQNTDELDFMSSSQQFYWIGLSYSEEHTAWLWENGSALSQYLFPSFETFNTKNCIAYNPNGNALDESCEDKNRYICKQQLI
T1 sequence (P26715 whole entry, looked up, the tested form may be a part): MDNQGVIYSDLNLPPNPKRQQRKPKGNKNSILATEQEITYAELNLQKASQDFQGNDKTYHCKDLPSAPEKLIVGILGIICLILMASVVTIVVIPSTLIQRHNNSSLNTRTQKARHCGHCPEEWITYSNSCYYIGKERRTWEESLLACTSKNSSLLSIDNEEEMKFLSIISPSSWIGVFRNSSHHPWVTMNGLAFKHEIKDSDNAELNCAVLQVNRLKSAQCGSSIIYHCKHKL

VNPGRSLFL [BFAR263-271, human peptide from Bifunctional apoptosis regulator]
maximal response units (Rmax) compared to theoretical maximum: lower maximal values compared to the theoretical maximum
